Experimental data published in patent publication US12491185B2, “Inhibitors of mPTP” (NRG Therapeutics Ltd, priority 2023, dated 2025).

How the values were obtained:
mPTP [1] = test: Human platelet mitochondria assay (annexin V / PS exposure by flow cytometry); assay type: cell-based; conditions: human blood platelets stimulated with thrombin/convulxin/calcium; % AnV-APC positive platelets
Procedure: The mPTP cell based assay was performed using a transformative functional cell-(human blood platelets)-based assay by flow cytometry. Procoagulant platelets expose phosphatidylserine (PS), allowing a burst of thrombin generation that is responsible for producing an occlusive thrombus. While an increase in cytosolic Ca^2+ concentration is required for deriving platelets to become activated, a higher and more sustained increases in cytosolic Ca^2+ concentration is needed to commit some platelets to becoming procoagulant. Simulation of platelets results in the rapid influx of Ca^2+ across the platelet membrane. The Ca^2+ is then sequestered by mitochondria until the threshold for mPTP opening is reached, at which point the pore opens and the mitochondrial membrane potential is dissipated. mPTP opening and subsequent disruption in mitochondrial membrane potential leads to release of a high concentration of calcium stored in mitochondria into the platelet's cytosol (“supramaximal calcium signal” [1]) which is known to be a requisite initiating signal transduction leading to externalisation of procoagulant PS to the outer leaflet of platelets' plasma membrane. PS externalisation of stimulated platelets can be quantified in live platelets using standard annexin V (AnV) labelling by flow cytometry, enabling pharmacological characterisation of mPTP inhibitors.
Fresh human blood (9 ml) was collected from consenting donors into 3.2% sodium citrate. Acid citrate dextrose (85 mM tri-sodium citrate, 71 mM citric acid, and 111 mM D-glucose) was added (1:7 vol/vol) and platelet-rich plasma was separated by centrifugation (200 g, 10 minutes, ambient temperature, and without any brake). Platelets were pelleted by centrifugation (600 g, 10 minutes, ambient temperature) in the presence of prostaglandin E1 (100 nM) and apyrase (0.02 U/mL). Pelleted platelets were resuspended in N-2-hydroxyethylpiperazine-N′-2-ethanesulfonic acid (HEPES)-buffered saline supplemented with D-glucose (135 mM NaCl, 10 mM HEPES, 3 mM KCl, 1 mM MgCl2, 0.34 mM NaH2PO4, 5 mM D-glucose, 0.1% bovine serum albumin, pH 7.4.) and apyrase (0.02 U/mL). Platelets were rested for 30 minutes at 30° C. before treatment protocols were initiated.
Test compounds were prepared from 10 mM stocks in DMSO. Serial dilution of search test compounds stamped in duplicate into a 96 well plate using Multidrop Pico 8 Digital Dispenser. Platelets were loaded and incubated for 30 min at room temperature. Then a stimulation mix containing Thrombin (FAC: 0.5 U/ml)/Convulxin (FAC: 0.05 μg/ml)/Calcium (FAC: 2 mM) added per well except control/not stimulated wells (This is low signal control). Some wells received no treatment but DMSO vehicle control and used as high signal controls (FAC of DMSO set at 0.1% in all wells of the 96 well plate). The reaction mix incubated for 10 min at room temperature. During last 2 min of stimulation AnV-APC was added to detect surface PS exposure. Samples ten fixed and fluorescence was detected by MACSQuant X flow cytometry and 10 000 platelet events were collected. The percentage of AnV-APC positive platelets was calculated for each well. IC50 for each compound was then calculated using a standard four parameter curve fit model (GraphPad Prism).

mPTP [2] = test: mPTP activity (Ca2+ retention) assay in isolated rat liver mitochondria; assay type: biochemical; conditions: examples tested by different contract research organisations, believed comparable
Summary of the method: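 pIC50 was taken from Fluo5N fluorescence at 10 min after a 75 μM CaCl2 bolus, scaled between DMSO (0%) and 5 μM cyclosporin A (100%). Compounds, ten half-log concentrations from 30 μM to 1 nM final, sat 10 min at RT with fresh female Sprague Dawley rat liver mitochondria energized by succinate plus rotenone.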

mPTP [3] = test: mPTP activity assay in isolated rat brain mitochondria; assay type: biochemical; conditions: fluorescence at 10 min timepoint
Summary of the method: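 Fresh brain mitochondria from female Sprague Dawley rats, digitonin-washed, in pH 7.4 mannitol/MOPS/KCl buffer with pyruvate, malate, ADP, oligomycin A and 2 μM Fluo5N. Preincubated with compounds 10 min at RT. Fluo5N fluorescence then read every 3 sec for 10 min on FLIPR Tetra.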

Compound | pIC50 (mPTP [1]) | mPTP Rat liver pIC50 (mPTP [2]) | mPTP Rat brain pIC50 (mPTP [3])
CC(c1ccccc1)C1(CNC(=O)c2nn(C)c(=O)[nH]2)CCC1 (single isomer, unassigned) [Example 26, 1-methyl-5-oxo-N-((1-(1-phenylethyl)cyclobutyl)methyl)-4,5-dihydro-1H-1,2,4-triazole-3-carboxamide] | 6.77 | 6.87 | 7.60
CC(c1ccccc1)C1(CNC(=O)c2nn(C)c(=O)[nH]2)CCC1 (single isomer, unassigned) [Example 27, 1-methyl-5-oxo-N-((1-(1-phenylethyl)cyclobutyl)methyl)-4,5-dihydro-1H-1,2,4-triazole-3-carboxamide] | 5.70 | 5.49 | 6.25
O=C(NCC1(Cc2ccc(F)cc2F)CC12CC2)c1nccc(=O)[nH]1 (single isomer, unassigned) [Example 235] | 7.31 | 6.79 | 7.65
Cn1nc(C(=O)NCC(C)(Cc2ccc(F)cc2F)C2CC2)[nH]c1=O (single isomer, unassigned) [Example 239, N-(2-cyclopropyl-3-(2,4-difluorophenyl)-2-methylpropyl)-1-methyl-5-oxo-4,5-dihydro-1H-1,2,4-triazole-3-carboxamide] | 7.39 | 7.10 | 8.07
CC(CNC(=O)c1nccc(=O)[nH]1)(Cc1ccc(F)cc1F)C1CC1 (single isomer, unassigned) [Example 243, N-(2-cyclopropyl-3-(2,4-difluorophenyl)-2-methylpropyl)-6-oxo-1,6-dihydropyrimidine-2-carboxamide] | 7.36 | 6.91 | 7.93
CC(CNC(=O)c1nccc(=O)[nH]1)(Cc1ccc(F)cc1F)C1CC1 (single isomer, unassigned) [Example 244, N-(2-cyclopropyl-3-(2,4-difluorophenyl)-2-methylpropyl)-6-oxo-1,6-dihydropyrimidine-2-carboxamide] | 7.14 | 6.73 | 7.53
O=C(NCC1(Cc2ccc(F)cc2F)CC(F)C1)c1nccc(=O)[nH]1 (single isomer, unassigned) [Example 247] | 6.52 | 6.27 | 7.26
CC(CNC(=O)c1nccc(=O)[nH]1)(Cc1ccc(F)cc1)C1CC1 (single isomer, unassigned) [Example 252] | 7.42 | 6.82 | 7.91
O=C(NCC1(Cc2cc(F)ccc2F)CCC1)c1cncc(=O)[nH]1 [Example 174] | – | 6.29 | 7.74
O=C(NCC1(Cc2ccc(F)cc2F)CCC1)c1ccc(=O)[nH]n1 [Example 175] | – | 5.92 | 6.81
O=C(NCC1(Cc2cccc(F)c2)CCC1)c1ccc(=O)[nH]n1 [Example 177] | – | 5.85 | 6.65
CSc1ccccc1CC1(CNC(=O)c2nn(C)c(=O)[nH]2)CCC1 [Example 181] | – | 5.66 | 6.91
CC[C@H](CNC(=O)c1nccc(=O)[nH]1)Cc1ccc(F)cc1F [Example 191] | – | 6.47 | 7.42
O=C(NC[C@H](Cc1ccc(F)cc1F)C1CC1)c1nncc(=O)[nH]1 [Example 195, (R)-N-(2-cyclopropyl-3-(2,4-difluorophenyl)propyl)-5-oxo-4,5-dihydro-1,2,4-triazine-3-carboxamide] | – | 6.37 | 7.43
O=C(NC[C@H](Cc1ccc(F)c(F)c1)C1CC1)c1noc(=O)[nH]1 [Example 203] | – | 6.48 | 7.66
O=C(NCC1(Cc2ccc(F)cc2F)CCC1)c1noc(=O)[nH]1 [Example 205] | – | 6.15 | 7.38
O=C(NC[C@H](Cc1cc(F)ccc1F)C1CC1)c1noc(=O)[nH]1 [Example 207] | – | 6.12 | 7.65
CC(c1ccc(F)cc1F)[C@@H](CNC(=O)c1nn(C)c(=O)[nH]1)C1CC1 (stereo partly drawn) [Example 238] | – | 5.15 | 6.21
Cn1nc(C(=O)NC[C@H](Cc2ccc(F)cc2Cl)C2CC2)[nH]c1=O [Example 241, (R)-N-(3-(2-chloro-4-fluorophenyl)-2-cyclopropylpropyl)-1-methyl-5-oxo-4,5-dihydro-1H-1,2,4-triazole-3-carboxamide] | – | 6.81 | 7.73
Cn1nc(C(=O)NC[C@@H](Cc2ccc(F)cc2Cl)C2CC2)[nH]c1=O [Example 242] | – | 4.95 | 5.39
Cn1nc(C(=O)NC[C@H](Cc2ccc(F)cc2F)CC(F)(F)F)[nH]c1=O [Example 245, (R)-N-(2-(2,4-difluorobenzyl)-4,4,4-trifluorobutyl)-1-methyl-5-oxo-4,5-dihydro-1H-1,2,4-triazole-3-carboxamide] | – | 6.13 | 7.44
Cn1nc(C(=O)NC[C@@H](Cc2ccc(F)cc2F)CC(F)(F)F)[nH]c1=O [Example 246] | – | 4.56 | 5.85
O=C(NC[C@@H](Cc1ccc(F)cc1)C1CC1)c1nccc(=O)[nH]1 [Example 249] | 6.52 | – | –
C[C@@](CNC(=O)c1ncc(Cl)c(=O)[nH]1)(Cc1ccc(F)cc1F)C1CC1 [Example 259, 5-chloro-N-[(2R)-2-cyclopropyl-3-(2,4-difluorophenyl)-2-methylpropyl]-4-oxo-3H-pyrimidine-2-carboxamide] | – | 6.46 | 8.22
C[C@](CNC(=O)c1ncc(Cl)c(=O)[nH]1)(Cc1ccc(F)cc1F)C1CC1 [Example 260, 5-chloro-N-[(2S)-2-cyclopropyl-3-(2,4-difluorophenyl)-2-methylpropyl]-4-oxo-3H-pyrimidine-2-carboxamide] | – | 5.78 | 7.50
Cn1nc(C(=O)N2CCC(C)(c3ccccc3)C2)[nH]c1=O (stereo not drawn) [Reference Example 101, 2-methyl-5-(3-methyl-3-phenylpyrrolidine-1-carbonyl)-2,4-dihydro-3H-1,2,4-triazol-3-one] | – | <4.57 | <4.52
Cn1nc(C(=O)N2CCC(c3ccccc3)CC2)[nH]c1=O [Reference Example 115, 2-methyl-5-(4-phenylpiperidine-1-carbonyl)-2,4-dihydro-3H-1,2,4-triazol-3-one] | – | <4.57 | <4.52
Cc1cnc(C(=O)NCC(C)(Cc2ccc(F)cc2F)C2CC2)[nH]c1=O (stereo not drawn) [compound 266] | – | 5.95 | 7.04
